Test results from patent US20230114728A1 (Venatorx Pharmaceuticals, Inc., priority 2019, published 2023).
Values after ≈ are worked out from the molar mass of the structure shown.

Legend:
E. coli K12 PBP3 = molecular target: T1, E. coli K12 PBP3 (Escherichia coli, UniProt P0AD68); test: biochemical; format: binding
T1 construct: made in house
Method in brief: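 Fluorescence polarization (ex 490/em 520 nm) competition of inhibitors against Bocillin-FL at 0.1 μM, read up to 60 min. Final PBP levels: E. coli PBP3 1.5 μM; A. baumannii PBP2 2.5 μM, PBP3 0.2 μM in Tris pH 8.0/NaCl/glycerol/Tween 20; N. gonorrhoeae PBP2 […] in Hepes pH 8.0/NaCl/glycerol. EC50 = concentration halving PBP-bound Bocillin-FL.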

N. gonorrhoeae WHO L = test: Liquid broth MIC in Fastidious broth; format: cell-based; conditions: Neisseria gonorrhoeae; N. gonorrhoeae strain WHO L; Fastidious broth; read-out: Minimum Inhibitory Concentration, N. gonorrhoeae WHO L
Method in brief: (§1)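 Colonies were swabbed from chocolate agar after 24 h growth and standardised by optical density at 600 nm. Compounds were serially diluted twofold in Fastidious broth, and bacteria added to give 5×10^5 CFU/mL. After about 24 h at 36 °C in 5% CO2, the lowest concentration allowing under 10% growth was taken as MIC.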

N. gonorrhoeae FA1090 = test: Liquid broth MIC in Fastidious broth; format: cell-based; conditions: Neisseria gonorrhoeae; N. gonorrhoeae strain FA1090; Fastidious broth; read-out: Minimum Inhibitory Concentration, N. gonorrhoeae FA1090
Method in brief: as §1

N. gonorrhoeae WHO Z = test: Liquid broth MIC in Fastidious broth; format: cell-based; conditions: Neisseria gonorrhoeae, read-out: Minimum Inhibitory Concentration, N. gonorrhoeae WHO Z
Method in brief: (§2)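 Strains bearing mosaic PBP2 grown 24 h on chocolate agar (36° C, 5% CO2), suspended in saline and added to 2-fold compound dilutions in Fastidious broth at 5×10^5 CFU/mL. After ~24 hours at 36° C with 5% CO2, MIC taken visually as lowest well with <10% growth relative to full growth.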

N. gonorrhoeae WHO G = test: Liquid broth MIC in Fastidious broth; format: cell-based; conditions: Neisseria gonorrhoeae; N. gonorrhoeae strain WHO G; Fastidious broth; read-out: Minimum Inhibitory Concentration, N. gonorrhoeae WHO G
Method in brief: as §1

N. gonorrhoeae WHO Q = test: Liquid broth MIC in Fastidious broth; format: cell-based; conditions: Neisseria gonorrhoeae, read-out: Minimum Inhibitory Concentration, N. gonorrhoeae WHO Q
Method in brief: as §2

[1] = test system: N. gonorrhoeae ATCC 49226; test: Liquid broth MIC in Fastidious broth; format: cell-based; conditions: Neisseria gonorrhoeae, ATCC49226; N. gonorrhoeae strain ATCC 49226; Fastidious broth; read-out: Minimum Inhibitory Concentration, N. gonorrhoeae ATCC 49226
Method in brief: as §1

N. gonorrhoeae WHO K = test: Liquid broth MIC in Fastidious broth; format: cell-based; conditions: Neisseria gonorrhoeae, read-out: Minimum Inhibitory Concentration, N. gonorrhoeae WHO K
Method in brief: as §2

N. gonorrhoeae PBP2 = molecular target: T2, N. gonorrhoeae PBP2 (Neisseria gonorrhoeae, UniProt P08149); test: Bocillin-FL fluorescence polarization competition binding assay, N. gonorrhoeae PBP2; conditions: fluorescence polarization competition binding assay using Bocillin-FL; read-out: N. gonorrhoeae PBP2 Potency
T2 construct: made in house
From the text: Example I: Experimental Method for Penicillin-Binding Protein Binding Assays with Bocillin-FL Via Fluorescence Polarization
To determine the ability of boronic acid-based test PBP inhibitors to bind Penicillin Binding Proteins (PBPs), Bocillin-FL (fluorescently-labeled penicillin V; ThermoFisher Scientific) was used in a fluorescence polarization (FP) competition binding assay to assess inhibitor binding to PBP2, PBP3 or PBP4 from Escherichia coli (K12), PBP3 from Pseudomonas aeruginosa (PA01), PBP1a, PBP2 and PBP3 from Acinetobacter baumannii (ATCC 19606), and PBP2 from Neiserria gonorrheae (FA19). PBPs were cloned and purified as described previously (E. coli PBPs, King, D. T, et al., ACS Infectious Diseases 2015, 1, 175-184; P. aeruginosa PBP3, Han et. al., PNAS 2010, 107 (51), 22002-22007; A. baumannii PBPs, Penwell et. al., Antimicrob. Agents Chemother. 2015, 59 (3), 1680-1689; N. gonorrhoeae PBP2, Singh et. al., J Biol. Chem. 2019, 294 (38), 14020-14032). To establish assay conditions for competition binding, enzyme titration/saturation binding experiments were initially performed. Bocillin-FL was prepared at 0.2 μM in a buffer comprised of 50 mM Hepes (pH 8.0), 300 mM NaCl and 5% (v/v) glycerol for reactions with E. coli, P. aeruginosa and N. gonorrhoeae PBPs, and 25 mM Tris (pH 8.0), 200 mM NaCl and 10% (v/v) glycerol and 0.005% (v/v) Tween 20 for reactions with A. baumannii PBPs. Saturation binding was performed by mixing 40 μl of PBP solutions ranging in concentrations from 0-24 μM with 40 μl of the 0.2 μM Bocillin-FL solution, in individual wells of a black 384-well microplate. FP was measured immediately upon mixing (Excitation, 490 nm; Emission, 520 nm; g-factor, 0.96), using a Cytation3 (BioTek) microplate reader and measured continuously for up to 120 minutes. […] The competition binding assay (80 μl final volume) was validated using beta-lactams and PBPs at final concentrations of: 1.5 μM, E. coli PBP3; 0.75 μM, P. aeruginosa PBP3; 1 μM A. baumannii PBP1a; 2.5 μM A. baumannii PBP2; 0.2 μM A. baumannii PBP3; and […] N. gonorrhoeae PBP2. Bocillin-FL was at 0.1 μM (0.05 μM with A. baumannii PBP1a) and beta-lactam concentrations ranged from 0-1000 μM. […] Bocillin-FL was added and the FP immediately measured for up to 60 minutes (90 minutes for E. coli PBP2). […] The beta-lactam potency was reported as the concentration of beta-lactam required to reduce the amount of PBP bound-Bocillin-FL by 50% (EC50). […] Binding assays for boronic acid PBP inhibitors were performed in an identical fashion for the respective PBPs

P. aeruginosa PBP3 = molecular target: T3, P. aeruginosa PBP3 (Pseudomonas aeruginosa, UniProt G3XD46); test: Bocillin-FL fluorescence polarization competition binding assay, P. aeruginosa PBP3; conditions: fluorescence polarization competition binding assay using Bocillin-FL
T3 construct: made in house
Method in brief: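 Binding of boronic acid inhibitors to purified Pseudomonas aeruginosa (PA01) PBP3 was measured by fluorescence polarization competition with Bocillin-FL, a fluorescent penicillin V. Reactions of 80 μl contained 0.75 μM PBP3 and 0.1 μM Bocillin-FL in 50 mM Hepes (pH 8.0), 300 mM NaCl and 5% (v/v) glycerol, in black 384-well plates. FP (Excitation 490 nm, Emission 520 nm) was read for up to 60 minutes. EC50 is the concentration that halves PBP-bound Bocillin-FL.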

T3 sequence (G3XD46 whole entry): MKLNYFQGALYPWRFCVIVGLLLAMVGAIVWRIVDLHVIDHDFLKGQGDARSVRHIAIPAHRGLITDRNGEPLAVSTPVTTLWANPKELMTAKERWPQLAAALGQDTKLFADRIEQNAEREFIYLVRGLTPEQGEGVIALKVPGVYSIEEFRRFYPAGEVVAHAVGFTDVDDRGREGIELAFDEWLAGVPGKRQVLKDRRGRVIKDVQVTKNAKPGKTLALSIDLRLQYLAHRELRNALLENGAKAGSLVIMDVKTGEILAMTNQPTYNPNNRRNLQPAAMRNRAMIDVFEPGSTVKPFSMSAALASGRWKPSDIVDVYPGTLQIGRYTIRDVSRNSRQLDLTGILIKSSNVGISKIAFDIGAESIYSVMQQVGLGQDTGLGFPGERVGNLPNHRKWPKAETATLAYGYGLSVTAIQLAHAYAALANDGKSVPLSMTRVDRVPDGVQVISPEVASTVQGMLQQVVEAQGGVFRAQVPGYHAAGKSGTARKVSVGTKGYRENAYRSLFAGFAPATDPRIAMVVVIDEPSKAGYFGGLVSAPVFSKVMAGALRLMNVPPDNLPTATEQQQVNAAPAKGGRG
T1 sequence (P0AD68 1-577): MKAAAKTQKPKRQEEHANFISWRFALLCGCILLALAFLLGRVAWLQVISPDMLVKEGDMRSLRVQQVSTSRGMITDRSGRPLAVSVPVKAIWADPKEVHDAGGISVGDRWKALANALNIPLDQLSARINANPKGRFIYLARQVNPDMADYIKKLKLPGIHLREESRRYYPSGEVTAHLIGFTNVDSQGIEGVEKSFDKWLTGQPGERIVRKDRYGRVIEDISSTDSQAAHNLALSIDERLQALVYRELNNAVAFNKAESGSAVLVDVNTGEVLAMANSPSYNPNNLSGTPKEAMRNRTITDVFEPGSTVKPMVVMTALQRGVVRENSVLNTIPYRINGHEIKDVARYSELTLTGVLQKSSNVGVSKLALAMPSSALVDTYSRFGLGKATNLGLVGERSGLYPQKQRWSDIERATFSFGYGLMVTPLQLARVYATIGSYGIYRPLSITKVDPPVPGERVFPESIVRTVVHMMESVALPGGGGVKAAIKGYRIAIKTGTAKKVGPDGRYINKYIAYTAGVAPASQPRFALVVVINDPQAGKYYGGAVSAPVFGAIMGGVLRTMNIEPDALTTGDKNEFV
T2 sequence (P08149 whole entry): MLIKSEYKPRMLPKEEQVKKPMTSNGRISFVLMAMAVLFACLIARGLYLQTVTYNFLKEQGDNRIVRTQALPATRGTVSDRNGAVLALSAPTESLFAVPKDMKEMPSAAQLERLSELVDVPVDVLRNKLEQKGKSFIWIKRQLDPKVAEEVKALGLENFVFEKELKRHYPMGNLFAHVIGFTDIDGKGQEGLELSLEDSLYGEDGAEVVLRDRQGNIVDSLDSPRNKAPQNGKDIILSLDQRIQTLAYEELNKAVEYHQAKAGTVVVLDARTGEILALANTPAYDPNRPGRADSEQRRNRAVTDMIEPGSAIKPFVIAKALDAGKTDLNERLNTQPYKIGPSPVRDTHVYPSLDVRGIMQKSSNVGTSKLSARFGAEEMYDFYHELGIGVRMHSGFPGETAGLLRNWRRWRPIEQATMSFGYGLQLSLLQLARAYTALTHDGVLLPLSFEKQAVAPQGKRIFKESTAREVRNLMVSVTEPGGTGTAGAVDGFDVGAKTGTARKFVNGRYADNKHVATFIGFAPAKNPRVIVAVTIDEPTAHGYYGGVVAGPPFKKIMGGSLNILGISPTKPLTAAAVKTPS

Structure (SMILES)	EC50 (E. coli K12 PBP3) [µM]	MIC (N. gonorrhoeae WHO L) [µg/mL]	MIC (N. gonorrhoeae FA1090) [µg/mL]	MIC (N. gonorrhoeae WHO Z) [µg/mL]	MIC (N. gonorrhoeae WHO G) [µg/mL]	MIC (N. gonorrhoeae WHO Q) [µg/mL]	MIC [1] [µg/mL]	MIC (N. gonorrhoeae WHO K) [µg/mL]	EC50 (N. gonorrhoeae PBP2) [µM]	P. aeruginosa PBP3 Potency (P. aeruginosa PBP3)
CCN1CCN(C(=O)N[C@H](C(=O)N[C@H]2Cc3cccc(C(=O)O)c3OB2O)c2ccc(C(=O)O)cc2Cl)C(=O)C1=O (single isomer, unassigned) [Example 152]	30 to 500	> 64	1 to 2 (≈ 1.7 to 3.41 µM)	4 to 8 (≈ 6.82 to 13.6 µM)	4 to 8 (≈ 6.82 to 13.6 µM)	16 to 32 (≈ 27.3 to 54.5 µM)	16 to 32 (≈ 27.3 to 54.5 µM)	16 to 32 (≈ 27.3 to 54.5 µM)	10 to 30	D (D represents a potency <10 μM)
CCN1CCN(C(=O)NC(C(=O)N[C@H]2Cc3cccc(C(=O)O)c3OB2O)c2c(F)cc(N)cc2F)C(=O)C1=O (stereo partly drawn) [Example 181, (3R)-3-(2-(4-amino-2,6-difluorophenyl)-2-(4-ethyl-2,3-dioxopiperazine-1-carboxamido)acetamido)-2-hydroxy-3,4-dihydro-2H-benzo[e][1,2]oxaborinine-8-carboxylic acid]	< 30	16 to 32 (≈ 28.6 to 57.2 µM)	0.25 to 0.5 (≈ 0.447 to 0.894 µM)	16 to 32 (≈ 28.6 to 57.2 µM)	1 to 2 (≈ 1.79 to 3.58 µM)	16 to 32 (≈ 28.6 to 57.2 µM)	4 to 8 (≈ 7.15 to 14.3 µM)	16 to 32 (≈ 28.6 to 57.2 µM)	> 100	
CCN1CCN(C(=O)NC(C(=O)N[C@H]2Cc3cccc(C(=O)O)c3OB2O)c2c(F)c(O)cc(O)c2F)C(=O)C1=O (stereo partly drawn) [Example 106, (3R)-3-(2-(2,6-difluoro-3,5-dihydroxyphenyl)-2-(4-ethyl-2,3-dioxopiperazine-1-carboxamido)acetamido)-2-hydroxy-3,4-dihydro-2H-benzo[e][1,2]oxaborinine-8-carboxylic acid]	30 to 500	> 64	16 to 32 (≈ 27.8 to 55.5 µM)	> 64	16 to 32 (≈ 27.8 to 55.5 µM)	> 64	> 64	> 64		D (D represents a potency <10 μM)
NCCN1CCN(C(=O)N[C@H](C(=O)N[C@H]2Cc3cccc(C(=O)O)c3OB2O)c2cccc(NS(N)(=O)=O)c2)C(=O)C1=O (single isomer, unassigned) [Example 115]	30 to 500	> 64	4 to 8 (≈ 6.48 to 13 µM)	> 64	> 64	> 64	> 64	> 64		C (C represents a potency between 10 and 30 μM)
NCCN1CCN(C(=O)N[C@@H](C(=O)N[C@H]2Cc3cccc(C(=O)O)c3OB2O)c2cccc(NS(N)(=O)=O)c2)C(=O)C1=O (single isomer, unassigned) [Example 114]	30 to 500	> 64	4 to 8 (≈ 6.48 to 13 µM)	> 64	16 to 32 (≈ 25.9 to 51.8 µM)	> 64	> 64	> 64		D (D represents a potency <10 μM)
